Data: US10786481B2, “Hydroquinone compounds, preparation methods therefor, and use in anti-tumor or immunomodulation therapy” (Biomedical Analysis Center, Academy of Military Medical …, priority 2016, dated 2020)

Columns and labels:
[1] = Release experiment of target compound in human plasma; conditions: 37° C., 5 min to 9 h
Procedure: Mobile phase: gradient elution; A: water; B: methanol;
Chromatographic column: CAPCEL PAK MF PH-1;
Detecting instrument: TQ-S; ion source: APCI; ion detection mode: MRM;
Dissolving the target compound with DMSO, then diluting to 5 μg/mL with the normal saline of 0.9%. The human blank plasma after subpackage is preserved at −70° C., unfreezing in a refrigerator at 4° C. when used. Take 20 μL of the blank plasma, adding 20 μL of the target compound solution as above formulated, vortexing for 15 s, and left it in the water bath at 37° C. […] Take the supernatant and inject 10 μL for detection.

[2] = test system: humanized embryonic nephrocyte (HEK293 cell); test: Cytotoxicity, MTS method, HEK293 cell; type: cell-based; conditions: Homo sapiens, HEK293, MTS method; read-out: IC50(mM) HEK293 cell
Text: (§1) The toxicity of compounds is detected with MTS method in the immortalized mice bone marrowmacrophages (IBMM), mice embryonic fibroblast (NIH3t3) and humanized embryonic nephrocyte.

[3] = test system: immortalized mice bone marrowmacrophages (IBMM); test: Cytotoxicity, MTS method, IBMM cell; type: cell-based; conditions: Mus musculus, Bone marrow macrophage, MTS method; read-out: IC50(mM) IBMM cell
Text: as §1

[4] = test system: mice embryonic fibroblast (NIH3t3); test: Cytotoxicity, MTS method, NIH3T3 cell; type: cell-based; conditions: Mus musculus, NIH3T3, MTS method; read-out: IC50(mM) NIH3T3 cell
Text: as §1

Row | Compound | release of BHA in human plasma [1] | IC50 [2] | IC50 [3] | IC50 [4]
1 | C#CC(=O)Oc1ccc(OC)cc1C(C)(C)C [XH2039-2, (2-tert-butyl-4-methoxyphenol) propiolate] | releases BHA | 0.125 mM | 0.159 mM | 0.248 mM
2 | COc1ccc(OC(=O)C(C)c2ccccc2)c(C(C)(C)C)c1 (centres unmarked) [XH2039-3, (2-tert-butyl-4-methoxyphenol) 2-phenyl propionate] | releases BHA |  |  | 
3 | COc1ccc(OC(=O)c2cnccc2OC)c(C(C)(C)C)c1 [XH2031, (2-tert-butyl-4-methoxyphenol) 4-methoxypyridine-3-formate] | releases BHA |  |  | 
4 | C=CC(=O)Oc1ccc(OC)cc1C(C)(C)C [XH2017, 2-tert-butyl-4-methoxyphenol acrylate] |  | 0.008 mM | 0.56 mM | 0.0229 mM
5 | (2-tert-butyl-4-methoxyphenol) 1-methylcyclopropyl formate [XH2038-2] | releases BHA |  |  | 
6 | COc1ccc(OC(=O)CC(F)(F)F)c(C(C)(C)C)c1 [XH2044-1, (2-tert-butyl-4-methoxyphenol) 3,3,3-trifluoropropionate] | releases BHA | 0.206 mM | > 0.7 mM | 0.353 mM
7 | COc1ccc(OC(=O)c2ccc([N+](=O)[O-])cc2F)c(C(C)(C)C)c1 [XH2041-4, (2-tert-butyl-4-methoxyphenol) 2-fluoro-4-nitryl benzoate] | releases BHA |  |  | 
8 | COc1ccc(OC(=O)C2CCCN(C(=O)OC(C)(C)C)C2)c(C(C)(C)C)c1 (centres unmarked) [XH2041-5, (2-tert-butyl-4-methoxyphenol) N-tert-butoxycarbonylpiperidine-3-formate] | releases BHA |  |  | 
9 | COc1ccc(OC(=O)Cc2c[nH]c3ccccc23)c(C(C)(C)C)c1 [XH2023, (2-tert-butyl-4-methoxyphenol) (1H-indole-3-yl)acetate] | releases BHA | 0.03 mM | 0.0065 mM | 0.065 mM
10 | COc1ccc(OC(=O)CCc2ccc(C)cc2)c(C(C)(C)C)c1 [XH2039-1, (2-tert-butyl-4-methoxyphenol) 3-(4-methylphenyl)-propionate] | releases BHA |  |  | 
11 | CCC(=O)Oc1ccc(OC)cc1C(C)(C)C [XH2016, 2-tert-butyl-4-methoxyphenol propionate] |  | 0.065 mM | 0.148 mM | 0.0186 mM
12 | COc1ccc(OC(=O)CCCC(=O)c2ccccc2)c(C(C)(C)C)c1 [XH2043-1, (2-tert-butyl-4-methoxyphenol) 4-benzoyl butyrate] | releases BHA |  |  | 
13 | COc1cc(C=CC(=O)Oc2ccc(OC)cc2C(C)(C)C)cc(OC)c1 [XH2043-2, (2-tert-butyl-4-methoxyphenol) 3,5-dimethoxy phenylacrylate] | releases BHA |  |  | 
14 | COc1ccc(OC(=O)C2=CCCCC2)c(C(C)(C)C)c1 [XH2015, 2-tert-butyl-4-methoxyphenol cyclohexenecarboxylate] | releases BHA | 0.109 mM | 0.147 mM | 0.194 mM
15 | COc1ccc(OC(=O)C2CCCN(C(=O)OC(C)(C)C)C2)c(C(C)(C)C)c1 (centres unmarked) [XH2025, (2-tert-butyl-4-methoxyphenol) N-tert-butoxycarbonylpiperidine-3-formate] | releases BHA |  |  | 
16 | COc1ccc(OC(=O)c2cccc(C#N)c2)c(C(C)(C)C)c1 [XH2036-2, (2-tert-butyl-4-methoxyphenol) 3-cyanobenzoate] | releases BHA |  |  | 
17 | COc1ccc(OC(=O)CCc2cc(C(C)(C)C)c(O)c(C(C)(C)C)c2)c(C(C)(C)C)c1 [XH2045-2, (2-tert-butyl-4-methoxyphenol) 3-(3,5-di-tert-butyl-4-hydroxy-phenyl)propionate] | releases BHA |  |  | 
18 | COc1ccc(OC(=O)CC23CC4CC(CC(C4)C2)C3)c(C(C)(C)C)c1 [XH2040-1, (2-tert-butyl-4-methoxyphenol) adamantaneacetate] | releases BHA |  |  | 
19 | COc1ccc(OC(=O)C2CCCC2)c(C(C)(C)C)c1 [XH2039-6, (2-tert-butyl-4-methoxyphenol) cyclopentanecarboxylate] | releases BHA | 0.136 mM | 0.171 mM | 0.229 mM
20 | COc1ccc(OC(=O)c2cc(Cl)nnc2Cl)c(C(C)(C)C)c1 [XH2038-1, (2-tert-butyl-4-methoxyphenol) 3,6-dichloropyridazine-4-formate] |  | 0.33 mM | 0.222 mM | 0.236 mM
21 | COc1ccc(OC(=O)Cc2cc(F)c(F)cc2F)c(C(C)(C)C)c1 [XH2041-2, (2-tert-butyl-4-methoxyphenol) 2,4,5-trifluorophenylacetate] | releases BHA | 0.349 mM | 0.156 mM | 0.26 mM
22 | COc1ccc(OC(=O)c2cc(Cl)ccn2)c(C(C)(C)C)c1 [XH2043-3, (2-tert-butyl-4-methoxyphenol) 4-chloropyridine-2-formate] | releases BHA |  |  | 

Row | Compound | release of BHA in human plasma [1] | IC50 [2] | IC50 [3] | IC50 [4]
23 | COc1ccc(OC(=O)c2cc3ccccc3[nH]2)c(C(C)(C)C)c1 [XH2038-3, (2-tert-butyl-4-methoxyphenol) 2-indoleformate] | releases BHA | 0.205 mM | 0.263 mM | 0.517 mM
24 | CCCCCCCC(=O)Oc1ccc(OC)cc1C(C)(C)C [XH2040-4, (2-tert-butyl-4-methoxyphenol) octanoate] | releases BHA | 0.283 mM | 0.198 mM | 0.366 mM
25 | COc1ccc(OC(=O)CCCCCC(C)=O)c(C(C)(C)C)c1 [XH2040-5, (2-tert-butyl-4-methoxyphenol) 7-oxooctanoate] | releases BHA |  |  | 
26 | COc1ccc(OC(=O)c2ccc(Cl)c(F)c2)c(C(C)(C)C)c1 [XH2035, (2-tert-butyl-4-methoxyphenol) 3-fluoro-4-chlorobenzoate] | releases BHA |  |  | 
27 | COc1ccc(OC(=O)Cc2cccs2)c(C(C)(C)C)c1 [XH2038-5, (2-tert-butyl-4-methoxyphenol) 2-thiopheneacetate] | releases BHA | 0.266 mM | 0.202 mM | 0.146 mM
28 | di(2-tert-butyl-4-methoxyphenol) adipate [XH2046-3] | releases BHA |  |  | 
29 | COc1ccc(OC(=O)c2cccnc2Cl)c(C(C)(C)C)c1 [XH2038-4, (2-tert-butyl-4-methoxyphenol) 2-chloro-3-picolinate] | releases BHA |  |  | 
30 | di(2-tert-butyl-4-methoxyphenol) terephthalate [XH2026] | releases BHA |  |  | 
31 | COc1ccc(OC(=O)CNC(=O)OC(C)(C)C)c(C(C)(C)C)c1 [XH2034, N-tert-butoxycarbonylglycine(2-tert-butyl-4-methoxyphenol)ester] | releases BHA |  |  | 
32 | COc1ccc(OC(=O)c2cc(I)ccc2Br)c(C(C)(C)C)c1 [XH2041-3, (2-tert-butyl-4-methoxyphenol) 2-bromo-5-iodo benzoate] | releases BHA |  |  | 
33 | COc1ccc(OC(=O)C2CCCN(C)C2)c(C(C)(C)C)c1 (centres unmarked) [XH2043-4, (2-tert-butyl-4-methoxyphenol) N-methylpiperidine-3-formate] | releases BHA |  |  | 
34 | COc1ccc(OC(=O)c2ccc3ccccc3c2)c(C(C)(C)C)c1 [XH2036-4, (2-tert-butyl-4-methoxyphenol) 2-naphthoate] | releases BHA | 0.253 mM | 0.23 mM | 0.232 mM
35 | di(2-tert-butyl-4-methoxyphenol) p-phenylenediacetate [XH2042] | releases BHA |  |  | 
36 | COc1ccc(OC(=O)Cc2cccc(F)c2)c(C(C)(C)C)c1 [XH2022, (2-tert-butyl-4-methoxyphenol) 3-fluorophenylacetate] | releases BHA |  |  | 
37 | CCCCCCCCCCCCCCCC(=O)Oc1ccc(OC)cc1C(C)(C)C [XH2033, 2-tert-butyl-4-methoxyphenol hexadecylate] | releases BHA |  |  | 
38 | COc1ccc(OC(=O)C(C)F)c(C(C)(C)C)c1 (centres unmarked) [XH2039-4, (2-tert-butyl-4-methoxyphenol) 2-fluoropropionate] | releases BHA |  |  | 
39 | COc1ccc(OC(=O)CCc2cccc([N+](=O)[O-])c2)c(C(C)(C)C)c1 [XH2028, (2-tert-butyl-4-methoxyphenol) 3-(3-nitrophenyl)propionate] | releases BHA |  |  | 
40 | COc1ccc(OC(=O)c2cnccc2C)c(C(C)(C)C)c1 [XH2030, (2-tert-butyl-4-methoxyphenol) 4-methylpyridine-3-formate] | releases BHA |  |  | 
41 | COc1ccc(OC(=O)c2ccccc2-c2ccccc2C(=O)Oc2ccc(OC)cc2C(C)(C)C)c(C(C)(C)C)c1 [XH2020, bis(2-tert-butyl-4-methoxyphenol)2,2′-biphenyldicarboxylate] | releases BHA |  |  | 
42 | COc1ccc(OC(=O)c2ccc(-c3ccccc3)cc2)c(C(C)(C)C)c1 [XH2029, (2-tert-butyl-4-methoxyphenol) 4-phenylbenzoate] | releases BHA |  |  | 
43 | COc1ccc(OC(=O)CCc2ccc(F)cc2)c(C(C)(C)C)c1 [XH2024, (2-tert-butyl-4-methoxyphenol) 3-(4-fluorophenyl)-propionate] | releases BHA |  |  | 
44 | di(2-tert-butyl-4-methoxyphenol) malonate [XH2037] | releases BHA |  |  | 
